Measurements: patent US6573279B1, “Isoquinoline derivatives or salts thereof” (priority 1999, dated 2003)
Where a name gives a salt, the structure may show the parent alone.

Columns and labels:
[1] = Test on convulsion expression; type: in vivo, rat; settings: 40 mg/kg i.v. (tail vein), once; male Wister rats; observed about 1 hour
Method: 3. Test on Convulsion Expression
Male rats of a Wister strain having a body weight of 250 to 350 g under awaking were fixed in a cage, and the test compound was administered from a tail vein. The test compound was administered at a dose of either 20 mg/kg (i.v.) or 40 mg/kg (i.v.) once for each rat. […] The influence of the test compound on the spontaneous behavior of the rat was evaluated by the fact whether or not the convulsion was noted within the observed period.

[2] = system: right atrium sample, spontaneous cardiac rate; experiment: Test on cardiac rate lowering effect (spontaneously beating isolated right atrium in Magnus tube); settings: Cavia porcellus, 0.5 h; concentration lowering the spontaneous cardiac rate by 30%; guinea pig right atrium; data 30 minutes after addition
Method: 2. Test on Cardiac Rate Lowering Effect
The test on cardiac rate lowering effect was carried out by a method according to Walter, K., et al. Eur. J. Pharmacol., 104(1-2):9-18, 1984.
Male guinea pigs of a Hartley strain having a body weight of about 250 to 400 g were fainted away by knocking the head and killed by draining out the blood, and the heart was excised. A right atrium sample was prepared in a Tyrode's solution which was fully aerated with 95% oxygen and 5% carbon dioxide gas. The sample was applied to a hook made of stainless steel and suspended at a load tension of 1.0 g in a Magnus tube filled with a Tyrode's solution which was well aerated with 95% oxygen and 5% carbon dioxide gas, whereby the spontaneously pulsing cardiac rate was recorded. After suspending, the sample was allowed to stand for a stabilization period of 1 hour or more, the test compound was cumulatively added into a Magnus tube every 30 to 45 minutes and a concentration vs. effect curve was determined from the data after 30 minutes from the administration of the substance, whereby the effect was judged. The cardiac rate lowering effect was compared in terms of the concentration (EC30) of the substance which lowered the spontaneous cardiac rate to an extent of 30% from the data before the administration.

| SMILES | melting point [°C] | General Findings (convulsion) [1] | EC30 [2] [nM] |
| --- | --- | --- | --- |
| COc1cc2c(cc1OC)CN(C(=O)C1CCCN(CCNC(=O)c3ccc4c(c3)OCO4)C1)CC2 (racemic) (as salt: HCl) [Example 9, (±)-N-{2-[3-(6,7-dimethoxy-1,2,3,4-tetrahydrolsoquinoline-2-carbonyl)piperidino]ethyl}-3,4-methylenedioxybenzamide hydrochloride] | 182 to 185 |  |  |
| COc1ccc(C(=O)NCCN2CCCC(C(=O)N3CCc4cc(OC)c(OC)cc4C3)C2)cc1OC (racemic) (as salt: HCl) [Example 11, (±)-N-{2-[3-(6,7-dimethoxy-1,2,3,4-tetrahydroisoquinoline-2-carbonyl)-piperidino]ethyl}-3,4-dimethoxybenzamide hydrochloride] | 199 to 202 |  |  |
| COc1cc2c(cc1OC)CN(C(=O)[C@H]1CCCN(CCC(=O)Nc3ccc4c(c3)OCO4)C1)CC2 (racemic) (as salt: fumarate) (hydrate or solvate) [Example 53, (±)-3-[(S)-3-(6,7-dimethoxy-1,2,3,4-tetrahydroisoquinoline-2-carbonyl)piperidino]-N-(3,4-methylenedioxyphenyl)propanamide fumarate] | 164 to 166 |  |  |
| COc1cc(NC(=O)CCN2CCCC(C(=O)N3CCc4cc(OC)c(OC)cc4C3)C2)cc(OC)c1 (racemic) (as salt: oxalate) [Example 3, (±)-3-[3-(6,7-dimethoxy-1,2,3,4-tetrahydroisoquinoline-2-carbonyl)piperidino]-N-(3,5-dimethoxyphenyl)propanamide 1/2 oxalate] | 187 to 192 |  |  |
| COc1cc2c(cc1OC)CN(C(=O)C1CCCN(CCCC(=O)Nc3ccc4c(c3)OCO4)C1)CC2 (racemic) (as salt: oxalate) [Example 7, (±)-4-[3-(6,7-dimethoxy-1,2,3,4-tetrahydroisoquinoline-2-carbonoyl)piperidino]-N-(3,4-methylenedioxyphenyl)butanamide oxalate] | 113 to 116 |  |  |
| COc1cc2c(cc1OC)CN(C(=O)C1CCCN(CC(=O)Nc3ccc4c(c3)OCO4)C1)CC2 (racemic) (as salt: oxalate) [Example 8, (±)-2-[3-(6,7-dimethoxy-1,2,3,4-tetrahydroisoquinoline-2-carbonyl)piperidino]-N-(3,4-methylenedioxyphenyl)ethanamide oxalate] | 157 to 159 |  |  |
| COc1cccc(C(=O)NCCN2CCCC(C(=O)N3CCc4cc(OC)c(OC)cc4C3)C2)c1 (racemic) (as salt: oxalate) [Example 10, (±)-N-{2-[3-(6,7-dimethoxy-1,2,3,4-tetrahydroisoquinoline-2-carbonyl)-piperidino]ethyl}-3-methoxybenzamide oxalate] | 120 to 123 |  |  |
| COc1cc2c(cc1OC)CN(C(=O)C1CCCN(CCC(=O)Nc3ccc4c(c3)OCO4)C1)CC2 (racemic) [Example 2, (±)-3-[3-(6,7-dimethoxy-1,2,3,4-tetrahydroisoquinoline-2-carbonyl)piperidino]-N-(3,4-methylenedioxyphenyl)propanamide hydrochloride] |  | No abnormal finding | 300 |
| COc1ccc(NC(=O)CCN2CCCC(C(=O)N3CCc4cc(OC)c(OC)cc4C3)C2)cc1 (racemic) [Example 4, (±)-3-[3-(6,7-dimethoxy-1,2,3,4-tetrahydroisoquinoline-2-carbonyl)piperidino]-N-(4-methoxyphenyl)propanamide hydrochloride] |  | No abnormal finding | 570 |
| COc1cc2c(cc1OC)CN(C(=O)C1CCCN(CCNC(=O)c3ccc4c(c3)OCO4)C1)CC2 (racemic) [Example 9, (±)-N-{2-[3-(6,7-dimethoxy-1,2,3,4-tetrahydrolsoquinoline-2-carbonyl)piperidino]ethyl}-3,4-methylenedioxybenzamide hydrochloride] |  | No abnormal finding | 270 |
| COc1cccc(C(=O)NCCN2CCCC(C(=O)N3CCc4cc(OC)c(OC)cc4C3)C2)c1 (racemic) [Example 10, (±)-N-{2-[3-(6,7-dimethoxy-1,2,3,4-tetrahydroisoquinoline-2-carbonyl)-piperidino]ethyl}-3-methoxybenzamide oxalate] |  | No abnormal finding | 270 |
| COc1cc2c(cc1OC)CN(C(=O)[C@@H]1CCCN(CCC(=O)Nc3ccc4c(c3)OCO4)C1)CC2 [Example 5, (−)-3-[(R)-3-(6,7-dimethoxy-1,2,3,4-tetrahydroisoquinoline-2-carbonyl)piperidino]-N-(3,4-methylenedioxyphenyl)propanamide L-tartrate] |  | No abnormal finding | 380 |
| COc1cc2c(cc1OC)CN(C(=O)[C@H]1CCCN(CCC(=O)Nc3ccc4c(c3)OCO4)C1)CC2 [Example 6, (+)-3-[(S)-3-(6,7-dimethoxy-1,2,3,4-tetrahydroisoquinoline-2-carbonyl)piperidino]-N-(3,4-methylenedioxyphenyl)propanamide D-tartrate] |  | No abnormal finding | 320 |
| COc1cc2c(cc1OC)CN(C(=O)C1CCCN(CCC(=O)Nc3cccc(Cl)c3)C1)CC2 (stereo not drawn) [Example 12] |  |  | 270 |
| COc1cc2c(cc1OC)CN(C(=O)C1CCCN(CCC(=O)Nc3ccc4ncsc4c3)C1)CC2 (stereo not drawn) [Example 14] |  | No abnormal finding | 470 |
| COc1cc2c(cc1OC)CN(C(=O)C1=CCCN(CCC(=O)Nc3ccc4c(c3)OCO4)C1)CC2 [Example 22] | 159 to 160 |  |  |
| COc1ccc(NC(=O)CCN2CCC=C(C(=O)N3CCc4cc(OC)c(OC)cc4C3)C2)cc1 [Example 23] | 155 to 164 |  |  |
| COc1ccc(C(=O)NCCN2CCCC(C(=O)N3CCc4cc(OC)c(OC)cc4C3)C2)cc1C (stereo not drawn) [Example 26] |  | No abnormal finding | 240 |
| COc1ccc(C(=O)NCCN2CCCC(C(=O)N3CCc4cc(OC)c(OC)cc4C3)C2)cc1F (stereo not drawn) [Example 27] |  | No abnormal finding | 410 |
| COc1cc(C(=O)NCCN2CCCC(C(=O)N3CCc4cc(OC)c(OC)cc4C3)C2)ccc1C (stereo not drawn) [Example 28] |  | No abnormal finding |  |
| COc1cc2c(cc1OC)CN(C(=O)C1CCCN(CCNC(=O)c3ccc(F)c(F)c3)C1)CC2 (stereo not drawn) [Example 29] |  | No abnormal finding | 290 |
| COc1cc2c(cc1OC)CN(C(=O)C1CCCN(CCNC(=O)c3ccc4c(c3)OCCO4)C1)CC2 (stereo not drawn) [Example 30] |  | No abnormal finding |  |
| COc1cc2c(cc1OC)CN(C(=O)[C@@H]1CCCN(CCNC(=O)c3ccc4c(c3)OCO4)C1)CC2 [Example 37] | 150 to 151 | No abnormal finding | 300 |
| COc1cc2c(cc1OC)CN(C(=O)[C@H]1CCCN(CCNC(=O)c3ccc4c(c3)OCO4)C1)CC2 [Example 38] | 154 to 155 | No abnormal finding | 290 |
| COc1cc2c(cc1OC)CN(C(=O)C1CCCN(CCNC(=O)c3ccc(F)cc3)C1)CC2 (stereo not drawn) [Example 40] |  | No abnormal finding | 330 |
| COc1cc2c(cc1OC)CN(C(=O)C1=CCCN(CCNC(=O)c3ccc4c(c3)OCO4)C1)CC2 [Example 46] | 162 to 164 |  |  |
| COc1ccc(C(=O)NCCN2CCC=C(C(=O)N3CCc4cc(OC)c(OC)cc4C3)C2)cc1 [Example 47] | 153 to 154 | No abnormal finding |  |
| COc1cc2c(cc1OC)CN(C(=O)C1CN(CCNC(=O)c3ccc4c(c3)OCO4)C1)CC2 [Example 48] | 131 to 133 |  |  |
| COc1cc2c(cc1OC)CN(C(=O)[C@@H]1CCCN(CCNC(=O)c3ccc(F)cc3)C1)CC2 [Example 49] |  | No abnormal finding | 290 |
| COc1cc2c(cc1OC)CN(C(=O)[C@H]1CCCN(CCNC(=O)c3ccc(F)cc3)C1)CC2 [Example 50] |  | No abnormal finding | 310 |
